Data taken from patent US20110195896A1 (CASE WESTERN RESERVE UNIVERSITY, priority 2008, published 2011).
Entries after “also recorded” stand apart in the source; their conditions may differ. Like-named read-outs stand apart in the source and are kept apart here.

Legend:
insulin receptor = insulin receptor (Homo sapiens, UniProt P06213); conditions: background; cited from earlier work
[1] = target: insulin receptor isoform B (IR-B, HIRB) (Homo sapiens, UniProt P06213); assay: Competitive receptor-binding assay, 125I-insulin tracer, epitope-tagged receptor antibody capture (IR-B); conditions: normalized to 100% = binding affinity of wild-type human insulin for IR-A
Experimental: (§1) Relative activity may be defined by comparison of the dissociation constants (Keq) governing the hormone-receptor binding reaction.
(§2) Receptor-Binding Assays. […] This assay employs the purified epitope-tagged receptor (IR-A, IR-B, or IGFR) using a microtiter-plate antibody-capture assay as known in the art. The epitope tag consists of three tandem repeats of the FLAG epitope. Microtiter strip plates (Nunc Maxisorb) were incubated overnight at 4° C. with anti-FLAG IgG (100 μl/well of […] in phosphate-buffered saline). Binding data were analyzed by a single-site heterologous competition binding model. A corresponding microtiter plate antibody assay using the epitope-tagged IGF Type I receptor was employed to assess cross-binding of analogues to this homologous receptor.

[2] = target: insulin receptor isoform A (IR-A, HIRA) (Homo sapiens, UniProt P06213); assay: Competitive receptor-binding assay, 125I-insulin tracer, epitope-tagged receptor antibody capture (IR-A); conditions: ratio of IR-A to IR-B binding
Experimental: as §1, §2

[3] = target: IGF Type I receptor (IGFR) (Homo sapiens, UniProt P08069); assay: Competitive receptor-binding assay, epitope-tagged IGF Type I receptor
IGF Type I receptor (IGFR), sequence (P08069 31-736 limits assumed): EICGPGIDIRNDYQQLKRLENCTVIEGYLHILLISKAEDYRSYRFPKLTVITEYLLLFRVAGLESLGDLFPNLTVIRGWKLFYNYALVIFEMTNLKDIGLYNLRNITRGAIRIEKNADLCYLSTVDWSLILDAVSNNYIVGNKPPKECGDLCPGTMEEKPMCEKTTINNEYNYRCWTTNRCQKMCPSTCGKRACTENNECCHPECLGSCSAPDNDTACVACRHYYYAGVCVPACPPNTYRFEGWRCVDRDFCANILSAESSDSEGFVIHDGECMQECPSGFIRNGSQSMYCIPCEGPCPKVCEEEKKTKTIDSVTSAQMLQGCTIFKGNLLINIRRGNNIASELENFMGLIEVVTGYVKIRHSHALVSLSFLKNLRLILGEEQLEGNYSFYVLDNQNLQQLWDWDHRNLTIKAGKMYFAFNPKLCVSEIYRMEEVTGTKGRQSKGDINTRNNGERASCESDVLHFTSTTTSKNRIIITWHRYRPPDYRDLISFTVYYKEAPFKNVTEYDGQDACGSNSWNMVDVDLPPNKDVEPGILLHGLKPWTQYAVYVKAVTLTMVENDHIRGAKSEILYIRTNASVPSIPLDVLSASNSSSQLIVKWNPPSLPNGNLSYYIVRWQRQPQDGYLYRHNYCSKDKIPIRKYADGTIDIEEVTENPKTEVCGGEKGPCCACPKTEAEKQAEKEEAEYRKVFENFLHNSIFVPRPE
IGF Type I receptor (IGFR), sequence (P08069 741-1367 partner limits assumed): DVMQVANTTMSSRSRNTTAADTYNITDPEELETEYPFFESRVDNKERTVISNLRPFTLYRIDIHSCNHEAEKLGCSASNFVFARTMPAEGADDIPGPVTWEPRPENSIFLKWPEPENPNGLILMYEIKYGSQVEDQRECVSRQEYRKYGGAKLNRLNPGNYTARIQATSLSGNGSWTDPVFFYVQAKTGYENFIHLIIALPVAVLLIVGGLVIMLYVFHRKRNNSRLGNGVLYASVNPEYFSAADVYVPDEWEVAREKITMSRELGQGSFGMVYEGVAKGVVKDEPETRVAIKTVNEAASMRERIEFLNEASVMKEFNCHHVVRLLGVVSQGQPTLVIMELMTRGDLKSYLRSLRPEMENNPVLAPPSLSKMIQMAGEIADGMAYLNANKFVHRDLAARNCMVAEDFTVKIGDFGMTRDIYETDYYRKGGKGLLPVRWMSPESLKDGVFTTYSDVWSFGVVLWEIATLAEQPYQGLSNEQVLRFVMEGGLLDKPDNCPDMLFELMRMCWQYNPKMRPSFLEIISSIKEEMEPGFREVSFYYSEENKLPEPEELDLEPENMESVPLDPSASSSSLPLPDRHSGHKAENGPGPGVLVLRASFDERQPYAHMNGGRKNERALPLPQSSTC
Experimental: as §1, §2

insulin-like growth factor II [IGF-II]
affinity for either IR isoform relative to human insulin (insulin receptor): < 20%
RELATIVE AFFINITY INSULIN RECEPTOR Isoform B [1]: 4%
selectivity / preference for IR-A relative to IR-B [2]: between fourfold and tenfold; also recorded: greater than twofold preference for IR-A

CC[C@H](C)[C@@H]1NC(=O)CNC(=O)[C@H](CCCNC(=N)N)NC(=O)[C@H](CCCNC(=N)N)NC(=O)[C@@H]2CCCN2C(=O)CNC(=O)CNC(=O)CNC(=O)[C@H]([C@@H](C)O)NC(=O)[C@@H]2CCCN2C(=O)[C@H](CC(=O)O)NC(=O)[C@H]([C@@H](C)O)NC(=O)[C@H](Cc2ccc(O)cc2)NC(=O)[C@H](Cc2ccccc2)NC(=O)[C@H](Cc2ccccc2)NC(=O)CNC(=O)[C@H](CCCNC(=N)N)NC(=O)[C@H](CCC(=O)O)NC(=O)CNC(=O)[C@@H]2CSSC[C@@H](C(=O)N[C@@H](CC(N)=O)C(=O)O)NC(=O)[C@H](Cc3ccc(O)cc3)NC(=O)[C@H](CC(N)=O)NC(=O)[C@H](CCC(=O)O)NC(=O)[C@H](CC(C)C)NC(=O)[C@H](CCC(N)=O)NC(=O)[C@H](Cc3ccc(O)cc3)NC(=O)[C@H](CC(C)C)NC(=O)[C@H](CO)NC(=O)[C@@H]3CSSC[C@H](NC(=O)[C@H](CCC(N)=O)NC(=O)[C@H](CCC(=O)O)NC(=O)[C@H](C(C)C)NC1=O)C(=O)N[C@@H](CSSC[C@H](NC(=O)[C@H](CC(C)C)NC(=O)[C@H](Cc1c[nH]cn1)NC(=O)[C@H](CCC(N)=O)NC(=O)[C@H](CC(N)=O)NC(=O)[C@@H](NC(=O)[C@@H](N)Cc1ccccc1)C(C)C)C(=O)NCC(=O)N[C@@H](CO)C(=O)N[C@@H](Cc1c[nH]cn1)C(=O)N[C@@H](CC(C)C)C(=O)N[C@@H](C(C)C)C(=O)N[C@@H](CCC(=O)O)C(=O)N[C@@H](C)C(=O)N[C@@H](CC(C)C)C(=O)N[C@@H](Cc1ccc(O)cc1)C(=O)N[C@@H](CC(C)C)C(=O)N[C@@H](C(C)C)C(=O)N2)C(=O)N[C@@H](Cc1c[nH]cn1)C(=O)N[C@@H](CO)C(=O)N[C@@H]([C@@H](C)CC)C(=O)N3 [[His^A8, Asp^B28, Pro^B29]-SCI]
Kd [3]: 27.6 ± 1.18 nM

Lantus ®
IGFR Relative Affinity ([3]; absolute number relative to IGF-1 (=1)): 0.015
IGFR Relative Affinity ([3]; absolute number relative to unmodified human insulin (=1)): 2-3
Kd ([3]; read-out: IGFR Kd): 3.14 ± 0.44 nM
